One compound from US7199151B2 (priority 1996, dated 2007) can be followed below.

What is called GI50 is the concentration that inhibits growth by half.

Molecules are shown by their SMILES.

Holding throughout (assay type): cell-based
Assay [1] concerns CNS SF-539. The assay can be described thus: cells. The following applies: 48 hours exposure, SRB. On the procedure: (§1) Conjugates 1 and 2 were sent to the United States National Cancer Institute (NCI) for screening in the NCI's anticancer screening program. The conjugates were provided in ethanol (approximately 40 mg analog/2 ml ethanol). […] Instructions were provided to store at 4° C. and to open the vials only when ready for immediate experimental use. Instructions also were provided to use the ethanol solutions containing the conjugates directly or to dissolve the analogs further in DMSO (dimethylsulfoxide) at appropriate concentrations, with vortexing if necessary for adequate dispersal.
(§2) The activities of conjugates 1 and 2 were tested against 57 cancer cell lines. […] To understand the data, reference is made to the guides provided by the NCI, excerpted as follows:
(§3) The Calculated Measurement of Effect: Percentage Growth (PG)
(§4) The measured effect of the compound on a cell line is currently calculated according to one or the other of the following two expressions: If (Mean ODtest−Mean ODtzero)≧0, then PG=100×(Mean ODtest−Mean ODtzero)/(Mean ODctrl−Mean Odtzero) If (Mean ODtest−Mean ODtzero)<0, then PG=100×(Mean ODtest−Mean Odtzero)/Mean Odtzero Where: • Mean ODtzero=The average of optical density measurements of SRB-derived color just before exposure of cells to the test compound. • Mean ODtest=The average of optical density measurements of SRB-derived color after 48 hours exposure of cells to the test compound. • Mean ODctrl=The average of optical density measurements of SRB-derived color after 48 hours with no exposure of cells to the test compound. • Experimental data was collected against each cell line . . . Each concentration is expressed as the log10 (molar or μg/ml) . . . The response parameters GI50, TGI, and LC50 are interpolated values representing the concentrations at which the PG is +50, 0, and −50, respectively. Sometimes these response parameters cannot be obtained by interpolation. If, for instance, all of the PGs in a given row exceed +50, then none of the three parameters can be obtained by interpolation. […]

Assay [2] has as its system CNSSF 268. The assay can be described thus: cells. To be noted: concentration at which PG is +50, 48 hours exposure, SRB. As for the experimental part: as §1, §2, §3, §4
Assay [3] deals with 57 cancer cell lines. The following applies: average over all cell lines; −10 used where Taxol was active at −10.0 (27 instances). On the procedure:
as §1, §2, §3
(§5) The measured effect of the compound on a cell line is currently calculated according to one or the other of the following two expressions: If (Mean ODtest−Mean ODtzero)≧0, then PG=100×(Mean ODtest−Mean ODtzero)/(Mean ODctrl−Mean Odtzero) If (Mean ODtest−Mean ODtzero)<0, then PG=100×(Mean ODtest−Mean Odtzero)/Mean Odtzero Where: • Mean ODtzero=The average of optical density measurements of SRB-derived color just before exposure of cells to the test compound. • Mean ODtest=The average of optical density measurements of SRB-derived color after 48 hours exposure of cells to the test compound. • Mean ODctrl=The average of optical density measurements of SRB-derived color after 48 hours with no exposure of cells to the test compound. • Experimental data was collected against each cell line . . . Each concentration is expressed as the log10 (molar or μg/ml) . . . The response parameters GI50, TGI, and LC50 are interpolated values representing the concentrations at which the PG is +50, 0, and −50, respectively. Sometimes these response parameters cannot be obtained by interpolation. If, for instance, all of the PGs in a given row exceed +50, then none of the three parameters can be obtained by interpolation. In such a case, the value given for each response parameter is the highest concentration tested . . . This practice is extended similarly to the other possible situations where a response parameter cannot be obtained by interpolation.
(§6) Dose-Response Curves: • The dose-response curve page of the data package is created by plotting the PGs against the log10 of the corresponding concentration for every cell line. The cell line curves are grouped by subpanel. Horizontal lines are provided at the PG values of +50, 0, and −50. The concentrations corresponding to points where the curves cross these lines are the GI50, TGI and LC50, respectively.

Assay [4] deals with CNSU251. On the procedure: as §1, §2, §3, §5, §6
Assay [5] concerns MDA-N and MDA-MB-435 breast cancer cell lines. The following applies: at all concentrations tested. As for the experimental part:
as §1, §2, §3, §5, §6

Assay [6] has as its system leukemia cancer cell lines. To be noted: six leukemia lines for the conjugates, four for Taxol; FIGS. 1, 10 and 19. On the procedure:
as §1, §2, §3, §5, §6

For assay [7], the system named is non-small cell lung cancer lines H522 and H460. On the procedure:
as §1, §2, §3, §5, §6

As for `CC(=O)O[C@H]1C(=O)[C@@]2(C)[C@H]([C@H](OC(=O)c3ccccc3)[C@]3(O)C[C@H](OC(=O)[C@H](O)[C@@H](NC(=O)c4ccccc4)c4ccccc4)C(C)=C1C3(C)C)[C@]1(OC(C)=O)CO[C@@H]1C[C@@H]2O` [Taxol, paclitaxel], the 50% growth inhibitory concentration (GI50) in assay [1] (CNSSF-539, concentration at which PG is +50, CNS SF 539) is 30.2 nM; in assay [2], less than 0.1 nM. In addition, in assay [1] (concentration at which PG is 0, CNS SF-539), the TGI is −6.95 log10 (molar or μg/ml). The “average GI50 across all cell lines tested” value in assay [3] was −9.19 log10 (molar or μg/ml). In addition, the “effectiveness at TGI against CNSU251 relative to other CNS cell lines” value in assay [4] is “least effective”. In addition, the “relative activity toward MDA-N versus MDA-MB-435” value in assay [5] is “equivalent in activity”. In addition, the “effectiveness against leukemia cancer cell lines” value in assay [6] is listed as “somewhat effective”. The “difference in effectiveness at TGI, H522 versus H460” value in assay [7] is listed as “about 3 logs”. Further, the “relative effectiveness at TGI, H522 versus H460” value in assay [7] is “more effective against non-small cell lung cancer line H522 than against H460”.
